{"source": "patent US20040091960A1", "about": "“Novel physiologically active peptides and use thereof” (priority 2000, published 2004)", "test_system": "LH secretion", "assay": "LH secretion promoting action (LH blood level)", "format": "in vivo", "settings": "statement only, no experiment described"}
{"substance": "polypeptide of the present invention: mouse matured GALR2 ligand, amino acid sequence SEQ ID NO: 1, ligand peptide for galanin receptor (APAHRGRGGWTLNSAGYLLGPVLPVSSKADQGRKRDSALEILDLWKIIDGLPYSHSPRMT; Mouse)", "values": [{"measurement": "LH secretion promoting action (LH blood level increasing action)", "value": "specific LH blood level increasing action"}]}
